Results: patent publication US4031211A, “Adriamycin esters, their preparation and use” (priority 1975, dated 1977)
Like-named read-outs stand apart in the source and are kept apart here.

Tests used:
solid sarcoma 180 = settings: Table 2, i.v. per 5 days
Procedure: (§1) The compounds according to the invention were tested on several in vitro systems and experimental mouse tumors, in comparison with adriamycin.

L 1210 leukemia = test: Antitumor effect on L 1210 leukemia in mice
Procedure: as §1

Ascites sarcoma 180 = test: Antitumor effect on ascites sarcoma 180 in mice; settings: for LTS (long term survivors, > 60 days) / TC (median survival time as compared to untreated controls) / TOX (mice which showed toxic lesions at the autopsy): Table 1
Procedure: as §1

Gross leukemia = test: Antitumor effect on Gross leukemia in mice; settings: for TC (median survival time as compared to untreated controls) / TOX (mice which showed toxic lesions at the autopsy): Table 1
Procedure: as §1

[1] = tested on: experimental mouse tumors; test: Antitumor/therapeutic activity and toxicity in experimental mouse tumors, overall statements; format: in vivo
Moloney sarcoma virus = test: Inhibition of Moloney sarcoma virus-induced foci in mouse embryo fibroblasts; format: cell-based; settings: text on Table 6, in vitro
Procedure: ^2 Inhibition of Moloney sarcoma virus-induced foci in mouse embryo
fibroblasts proliferation (treatment per 72 hours)

[2] = Table 1, first experiment, ip, day 1, 0.2 mg./kg.
[3] = Table 1, first experiment, ip, day 1, 1 mg./kg.
[4] = Table 1, first experiment, ip, day 1, 5 mg./kg.
[5] = Table 1, first experiment, ip, day 1, 10 mg./kg.
[6] = Table 1, second experiment, ip, day 1, 10 mg./kg.
[7] = Table 1, second experiment, ip, day 1, 12 mg./kg.
[8] = Table 1, second experiment, ip, day 1, 15 mg./kg.
[9] = Table 4, i.p. on day 1, 10 mg./kg.
[10] = Table 4, i.p. on day 1, 2 mg./kg.
[11] = Table 4, i.p. on day 1, 4 mg./kg.
[12] = Table 4, i.p. on day 1, 8 mg./kg.
[13] = Table 5, first experiment, iv, days 1,2,3, 4.5 mg./kg.
[14] = Table 5, second experiment, iv, days 1,2,3, 3.5 mg./kg.
[15] = Table 5, first experiment, iv, days 1,2,3, 6 mg./kg.

## COc1cccc2c1C(=O)c1c(O)c3c(c(O)c1C2=O)C[C@@](O)(C(=O)CO)C[C@@H]3O[C@H]1C[C@H](N)[C@H](O)[C@H](C)O1 [Adriamycin]
Solid sarcoma 180; 2.5 mg./kg.
  % tumor growth at day 11: 42%
Solid sarcoma 180; 3 mg./kg.
  % tumor growth at day 11: 33%
L 1210 leukemia; [2]
  TC (median survival time as compared to untreated controls): 111%
L 1210 leukemia; [3]
  TC (median survival time as compared to untreated controls): 133%
L 1210 leukemia; [4]
  TC (median survival time as compared to untreated controls): 139%
L 1210 leukemia; [5]
  TC (median survival time as compared to untreated controls): 150%
  TOX (mice which showed toxic lesions at the autopsy): 3/10
L 1210 leukemia; [6]
  LTS (long term survivors, > 60 days): 1/10
  TC (median survival time as compared to untreated controls): 139%
  TOX (mice which showed toxic lesions at the autopsy): 1/10
L 1210 leukemia; [7]
  TC (median survival time as compared to untreated controls): 167%
  TOX (mice which showed toxic lesions at the autopsy): 2/10
L 1210 leukemia; [8]
  TC (median survival time as compared to untreated controls): 100%
  TOX (mice which showed toxic lesions at the autopsy): 6/10
L 1210 leukemia; Table 3, ip, day 1, 2.5 mg./kg.
  TC: 122%
L 1210 leukemia; Table 3, ip, day 1, 5 mg./kg.
  TC: 155%
L 1210 leukemia; Table 3, ip, day 1, 10 mg./kg.
  LTS: 2/9
  TC: 233%
  TOX: 2/9
L 1210 leukemia; Table 4, i.p. on day 1, 2.5 mg./kg.
  TC: 122%
L 1210 leukemia; Table 4, i.p. on day 1, 5 mg./kg.
  TC: 155%
L 1210 leukemia; [9]
  LTS: 2/9
  TC: 233%
  TOX: 2/9
L 1210 leukemia; Table 5, ip, day 1, 2.5 mg./kg.
  TC: 122%
L 1210 leukemia; Table 5, ip, day 1, 5 mg./kg.
  TC: 155%
L 1210 leukemia; Table 5, ip, day 1, 10 mg./kg.
  LTS: 2/9
  TC: 233%
  TOX: 2/9
Ascites sarcoma 180; ip, day 1, 1 mg./kg.
  LTS (long term survivors, > 60 days): 3/10
  TC (median survival time as compared to untreated controls): 243%
  TOX (mice which showed toxic lesions at the autopsy): 0/10
Ascites sarcoma 180; ip, day 1, 5 mg./kg.
  LTS (long term survivors, > 60 days): 3/10
  TC (median survival time as compared to untreated controls): 150%
  TOX (mice which showed toxic lesions at the autopsy): 0/10
Ascites sarcoma 180; Table 3, ip, day 1, 2 mg./kg.
  LTS: 1/10
  TC: 203%
Ascites sarcoma 180; Table 3, ip, day 1, 4 mg./kg.
  LTS: 2/10
  TC: 242%
Ascites sarcoma 180; Table 3, ip, day 1, 8 mg./kg.
  LTS: 2/10
  TC: 127%
  TOX: 8/10
Ascites sarcoma 180; [10]
  LTS: 4/10
  TC: 271%
Ascites sarcoma 180; [11]
  LTS: 5/10
  TC: 493%
  TOX: 1/10
Ascites sarcoma 180; [12]
  LTS: 3/10
  TC: 317%
  TOX: 4/10
Ascites sarcoma 180; Table 5, ip, day 1, 2 mg./kg.
  LTS: 4/10
  TC: 271%
Ascites sarcoma 180; Table 5, ip, day 1, 4 mg./kg.
  LTS: 5/10
  TC: 493%
  TOX: 1/10
Ascites sarcoma 180; Table 5, ip, day 1, 8 mg./kg.
  LTS: 3/10
  TC: 317%
  TOX: 4/10
Gross leukemia; iv, days 1,2,3, 3.5 mg./kg.
  TC (median survival time as compared to untreated controls): 143%
  TOX (mice which showed toxic lesions at the autopsy): 1/10
Gross leukemia; iv, days 1,2,3, 4.5 mg./kg.
  TC (median survival time as compared to untreated controls): 171%
Gross leukemia; iv, days 1,2,3, 6 mg./kg.
  TOX (mice which showed toxic lesions at the autopsy): 4/10
Gross leukemia; Table 5, first experiment, iv, days 1,2,3, 3.5 mg./kg.
  TC: 157%
Gross leukemia; [13]
  TC: 178%
Gross leukemia; [14]
  TC: 143%
  TOX: 1/10
Gross leukemia; Table 5, second experiment, iv, days 1,2,3, 4.5 mg./kg.
  TC: 171%

## CCCCCC(=O)OCC(=O)OCC(=O)C1(O)Cc2c(O)c3c(c(O)c2C(OC2CC(N)C(O)C(C)O2)C1)C(=O)c1c(OC)cccc1C3=O.Cl (centres unmarked) [adriamycin-14-0-hexanoyl glycolate, Adriamycin-14-0-Hexanoyl Glycolate Hydrochloride]
L 1210 leukemia; [10]
  TC: 133%
L 1210 leukemia; [11]
  TC: 144%
L 1210 leukemia; [12]
  LTS: 1/9
  TC: 155%
Ascites sarcoma 180; [10]
  LTS: 1/10
  TC: 250%
Ascites sarcoma 180; [11]
  LTS: 5/10
  TC: 493%
Ascites sarcoma 180; [12]
  LTS: 3/10
  TC: 346%
Ascites sarcoma 180; Table 4, i.p. on day 1, 16 mg./kg.
  TC: 128%
[1]
  toxicity compared with adriamycin: less toxic
[1]; tumor not given
  activity compared with adriamycin: as active as adriamycin

## CCCCCC(=O)SCC(=O)OCC(=O)C1(O)Cc2c(O)c3c(c(O)c2C(OC2CC(N)C(O)C(C)O2)C1)C(=O)c1c(OC)cccc1C3=O.Cl (centres unmarked) [adriamycin-14-0-hexanoyl thioglycolate, Adriamycin-14-0-Hexanoyl Thioglycolate Hydrochloride]
L 1210 leukemia
  antitumor activity compared with adriamycin: marked anti-tumor effect, slightly lower than that of adriamycin
L 1210 leukemia; Table 3, ip, day 1, 4 mg./kg.
  TC: 133%
L 1210 leukemia; Table 3, ip, day 1, 8 mg./kg.
  TC: 155%
L 1210 leukemia; Table 3, ip, day 1, 16 mg./kg.
  LTS: 2/9
  TC: 170%
Ascites sarcoma 180
  antitumor effect compared with adriamycin: marked anti-tumor effect, slightly lower than that of adriamycin
Ascites sarcoma 180; Table 3, ip, day 1, 2 mg./kg.
  LTS: 1/10
  TC: 153%
  TOX: 1/10
Ascites sarcoma 180; Table 3, ip, day 1, 4 mg./kg.
  LTS: 2/10
  TC: 196%
  TOX: 1/10
Ascites sarcoma 180; Table 3, ip, day 1, 8 mg./kg.
  LTS: 2/10
  TC: 177%
Ascites sarcoma 180; Table 3, ip, day 1, 16 mg./kg.
  TC: 188%
  TOX: 6/10
[1]
  toxicity compared with adriamycin: less toxic

## CCCCCCCCCCCC(=O)OCC(=O)OCC(=O)C1(O)Cc2c(O)c3c(c(O)c2C(OC2CC(N)C(O)C(C)O2)C1)C(=O)c1c(OC)cccc1C3=O.Cl (centres unmarked) [adriamycin-14-0-lauroyl glycolate, Adriamycin-14-0-Lauroyl Glycolate Hydrochloride]
L 1210 leukemia; Table 5, ip, day 1, 2 mg./kg.
  TC: 135%
L 1210 leukemia; Table 5, ip, day 1, 4 mg./kg.
  TC: 141%
L 1210 leukemia; Table 5, ip, day 1, 8 mg./kg.
  TC: 165%
L 1210 leukemia; Table 5, ip, day 1, 16 mg./kg.
  LTS: 1/10
  TC: 200%
Ascites sarcoma 180
  number of long term survivors compared with adriamycin: higher number of long term survivors
Ascites sarcoma 180; Table 5, ip, day 1, 2 mg./kg.
  LTS: 4/10
  TC: 436%
Ascites sarcoma 180; Table 5, ip, day 1, 4 mg./kg.
  LTS: 8/10
  TC: 493%
Ascites sarcoma 180; Table 5, ip, day 1, 8 mg./kg.
  TC: 385%
Ascites sarcoma 180; Table 5, ip, day 1, 16 mg./kg.
  TC: 242%
[1]
  toxicity compared with adriamycin: less toxic than adriamycin
Gross leukemia
  increase of the median survival time compared with adriamycin: higher increase of the median survival time than does adriamycin
Gross leukemia; [13]
  TC: 136%
Gross leukemia; [15]
  LTS: 2/10
  TC: 257%
Gross leukemia; Table 5, first experiment, iv, days 1,2,3, 7.5 mg./kg.
  TC: 221%
Gross leukemia; Table 5, first experiment, iv, days 1,2,3, 9 mg./kg.
  TC: 128%
Gross leukemia; Table 5, second experiment, iv, days 1,2,3, 6 mg./kg.
  TC: 193%
Gross leukemia; Table 5, second experiment, iv, days 1,2,3, 7.5 mg./kg.
  TC: 214%
Moloney sarcoma virus
  activity on Moloney Sarcoma Virus: most active among all of them

## CCCCCCCCCCCCCCCCCC(=O)OCC(=O)OCC(=O)C1(O)Cc2c(O)c3c(c(O)c2C(OC2CC(N)C(O)C(C)O2)C1)C(=O)c1c(OC)cccc1C3=O.Cl (centres unmarked) [adriamycin-14-0-stearoyl glycolate, Adriamycin-14-0-Stearoyl Glycolate Hydrochloride]
Solid sarcoma 180; 2.5 mg./kg.
  % tumor growth at day 11: 58%
Solid sarcoma 180; 3 mg./kg.
  % tumor growth at day 11: 58%
Solid sarcoma 180; 3.5 mg./kg.
  % tumor growth at day 11: 52%
Solid sarcoma 180; 4 mg./kg.
  % tumor growth at day 11: 37%
L 1210 leukemia
  antitumor activity compared with adriamycin: as active as adriamycin
  toxicity compared with adriamycin: less toxic
L 1210 leukemia; [2]
  TC (median survival time as compared to untreated controls): 100%
L 1210 leukemia; [3]
  TC (median survival time as compared to untreated controls): 133%
  TOX (mice which showed toxic lesions at the autopsy): 1/10
L 1210 leukemia; [4]
  TC (median survival time as compared to untreated controls): 133%
L 1210 leukemia; [5]
  TC (median survival time as compared to untreated controls): 139%
L 1210 leukemia; [6]
  TC (median survival time as compared to untreated controls): 128%
L 1210 leukemia; [7]
  TC (median survival time as compared to untreated controls): 150%
L 1210 leukemia; [8]
  TC (median survival time as compared to untreated controls): 150%
Ascites sarcoma 180
  antitumor effect compared with adriamycin: not significantly different from that of adriamycin
Ascites sarcoma 180; ip, day 1, 0.3 mg./kg.
  LTS (long term survivors, > 60 days): 1/10
  TC (median survival time as compared to untreated controls): 119%
Ascites sarcoma 180; ip, day 1, 1.6 mg./kg.
  LTS (long term survivors, > 60 days): 2/10
  TC (median survival time as compared to untreated controls): 222%
  TOX (mice which showed toxic lesions at the autopsy): 1/10
Ascites sarcoma 180; ip, day 1, 7.8 mg./kg.
  LTS (long term survivors, > 60 days): 1/10
  TC (median survival time as compared to untreated controls): 187%
  TOX (mice which showed toxic lesions at the autopsy): 1/10
Gross leukemia
  antitumor activity compared with adriamycin: as active as adriamycin
  toxicity compared with adriamycin: less toxic
Gross leukemia; iv, days 1,2,3, 4.5 mg./kg.
  TC (median survival time as compared to untreated controls): 143%
  TOX (mice which showed toxic lesions at the autopsy): 1/10
Gross leukemia; iv, days 1,2,3, 6 mg./kg.
  TC (median survival time as compared to untreated controls): 186%
Gross leukemia; iv, days 1,2,3, 7.5 mg./kg.
  TC (median survival time as compared to untreated controls): 186%
Gross leukemia; iv, days 1,2,3, 9 mg./kg.
  TC (median survival time as compared to untreated controls): 207%
